Measurements published in patent publication US20230233569A1 (Revolution Medicines, Inc., priority 2020, published 2023).
Read-outs that look alike come from different tables or passages of the source.

Key:
Capan-1 (K-Ras G12V) = test: CellTiter-Glo cell viability assay, 5-day treatment; assay type: cell-based; settings: Homo sapiens, CAPAN-1, 120 h, 5-day treatment; read-out: Capan-1 Cell Viability assay data (K-Ras G12V, IC50)
Procedure, shortened: (§1)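 Viability is read as luminescence on day 5 after direct compound addition to plated cells, following about 30 minutes' room-temperature equilibration. Each signal is scaled to mean DMSO as 100%.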

NCI-H358 (K-Ras G12C) = test: as above; assay type: cell-based; settings: Homo sapiens, NCI-H358, 120 h, 5-day treatment; read-out: H358 Cell Viability assay data (K-Ras G12C, IC50)
Procedure, shortened: as §1

KRAS G12C = KRAS G12C (Homo sapiens, UniProt P01116+P62937, G12C); test: Disruption of BRAF RBD interaction with Ras (FRET / MOA assay, with Cyclophilin A); assay type: biochemical
Procedure, shortened: (§2)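 First, compounds at a ten-point threefold dilution series (highest final concentration 30 μM) were incubated with nucleotide-loaded K-Ras, Cyclophilin A and BRAF RBD for 3 h at 25 °C. Next, detection antibodies were added for 1.5 h. Finally, IC50 was calculated from TR-FRET ratio decreases against DMSO controls.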

KRAS G12D = KRAS G12D (Homo sapiens, UniProt P01116+P62937, G12D); test: as above; assay type: biochemical
Procedure, shortened: as §2

KRAS G12S = KRAS G12S (Homo sapiens, UniProt P01116+P62937, G12S); test: as above; assay type: biochemical
Procedure, shortened: as §2

KRAS G12V = KRAS G12V (Homo sapiens, UniProt P01116+P62937, G12V); test: as above; assay type: biochemical
Procedure, shortened: as §2

KRAS G13C = KRAS G13C (Homo sapiens, UniProt P01116+P62937, G13C); test: as above; assay type: biochemical
Procedure, shortened: as §2

KRAS G13D = KRAS G13D (Homo sapiens, UniProt P01116+P62937, G13D); test: as above; assay type: biochemical
Procedure, shortened: as §2

KRAS WT = KRAS WT (Homo sapiens, UniProt P01116+P62937); test: as above; assay type: biochemical
Procedure, shortened: as §2

NRAS G12C = NRAS G12C (Homo sapiens, UniProt P01111+P62937, G12C); test: as above; assay type: biochemical
KRAS Q61H = KRAS Q61H (Homo sapiens, UniProt P01116+P62937, Q61H); test: as above; assay type: biochemical; settings: KRAS Q61H; read-out: KRAS Q61H FRET data IC50
Procedure, shortened: (§3)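 TR-FRET in 25 mM HEPES pH 7.3, 100 mM NaCl, 5 mM MgCl2, 0.1% BSA: 25 μM Cyclophilin A, 12.5 nM His6-Ras-GMPPNP, 50 nM GST-BRAF RBD with compound (10-point 3-fold series from 30 μM), 3 h at 25° C. Anti-His Eu/anti-GST APC added, 1.5 h more; IC50 from decreased FRET ratio versus DMSO.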

NRAS Q61K = NRAS Q61K (Homo sapiens, UniProt P01111+P62937, Q61K); test: as above; assay type: biochemical; settings: NRAS Q61K; read-out: NRAS Q61K FRET data IC50
Procedure, shortened: as §3

NRAS Q61R = NRAS Q61R (Homo sapiens, UniProt P01111+P62937, Q61R); test: as above; assay type: biochemical; settings: NRAS Q61R; read-out: NRAS Q61R FRET data IC50
Procedure, shortened: as §3

NRAS WT = NRAS WT (Homo sapiens, UniProt P01111+P62937); test: as above; assay type: biochemical; settings: NRAS WT; read-out: NRAS WT FRET data IC50
Procedure, shortened: as §3

[1] = read-out: KRAS G12C FRET data, IC50
[2] = read-out: KRAS G12D FRET data, IC50
[3] = read-out: KRAS G12S FRET data, IC50
[4] = KRAS G12V, read-out: KRAS G12V FRET data IC50
[5] = read-out: KRAS G13C FRET data, IC50
[6] = KRAS G13D, read-out: KRAS G13D FRET data IC50
[7] = KRAS WT, read-out: KRAS WT FRET data IC50
[8] = NRAS G12C, read-out: NRAS G12C FRET data IC50

Chain of KRAS WT (P01116 1-169 isoform P01116-2 limits assumed): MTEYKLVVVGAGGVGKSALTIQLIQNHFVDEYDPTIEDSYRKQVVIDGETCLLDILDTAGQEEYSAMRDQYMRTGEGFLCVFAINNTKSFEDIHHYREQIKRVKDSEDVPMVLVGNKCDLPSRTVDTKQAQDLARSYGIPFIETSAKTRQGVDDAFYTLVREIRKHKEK
Chain of KRAS WT (P62937 whole entry): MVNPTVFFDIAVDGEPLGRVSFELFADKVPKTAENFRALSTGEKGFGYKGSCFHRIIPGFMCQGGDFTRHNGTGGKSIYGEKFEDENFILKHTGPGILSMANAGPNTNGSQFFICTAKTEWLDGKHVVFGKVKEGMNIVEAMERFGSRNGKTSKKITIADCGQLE
Chain of KRAS G13C (P01116 1-169 isoform P01116-2 G13C): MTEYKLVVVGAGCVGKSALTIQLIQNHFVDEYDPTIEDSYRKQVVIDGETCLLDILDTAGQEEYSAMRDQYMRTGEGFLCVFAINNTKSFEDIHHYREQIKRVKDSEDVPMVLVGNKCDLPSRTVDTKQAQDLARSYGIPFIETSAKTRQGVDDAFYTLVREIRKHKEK
Chain of KRAS G13C (P62937 whole entry): as the sequence (P62937 whole entry) above
Chain of NRAS WT (P01111 whole entry): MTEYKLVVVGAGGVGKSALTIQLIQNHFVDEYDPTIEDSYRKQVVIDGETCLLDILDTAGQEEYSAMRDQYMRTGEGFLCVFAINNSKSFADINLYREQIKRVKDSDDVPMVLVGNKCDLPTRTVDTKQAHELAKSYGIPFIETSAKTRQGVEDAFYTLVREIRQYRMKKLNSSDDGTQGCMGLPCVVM
Chain of NRAS WT (P62937 whole entry): as the sequence (P62937 whole entry) above
Chain of KRAS G13D (P01116 1-169 isoform P01116-2 G13D limits assumed): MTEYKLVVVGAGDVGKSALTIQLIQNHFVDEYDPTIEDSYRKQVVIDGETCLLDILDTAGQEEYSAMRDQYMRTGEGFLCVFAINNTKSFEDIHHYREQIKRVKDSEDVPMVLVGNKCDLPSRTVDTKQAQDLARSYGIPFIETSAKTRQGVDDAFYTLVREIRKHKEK
Chain of KRAS G13D (P62937 whole entry): as the sequence (P62937 whole entry) above
Chain of NRAS Q61R (P01111 whole entry Q61R): as the sequence (P01111 whole entry) above, with Q61R counted along it
Chain of NRAS Q61R (P62937 whole entry): as the sequence (P62937 whole entry) above
Chain of KRAS Q61H (P01116 1-169 isoform P01116-2 Q61H limits assumed): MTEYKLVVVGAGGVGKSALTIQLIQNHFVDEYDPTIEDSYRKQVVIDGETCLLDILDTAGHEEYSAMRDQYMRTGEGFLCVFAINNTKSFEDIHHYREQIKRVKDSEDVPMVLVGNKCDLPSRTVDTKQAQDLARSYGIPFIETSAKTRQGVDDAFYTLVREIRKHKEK
Chain of KRAS Q61H (P62937 whole entry): as the sequence (P62937 whole entry) above
Chain of KRAS G12C (P01116 1-169 isoform P01116-2 G12C): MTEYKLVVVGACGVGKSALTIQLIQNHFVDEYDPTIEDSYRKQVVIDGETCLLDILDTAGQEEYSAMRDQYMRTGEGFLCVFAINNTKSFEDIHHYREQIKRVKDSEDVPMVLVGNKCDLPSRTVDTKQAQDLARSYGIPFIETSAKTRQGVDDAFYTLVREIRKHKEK
Chain of KRAS G12C (P62937 whole entry): as the sequence (P62937 whole entry) above
Chain of KRAS G12D (P01116 1-169 isoform P01116-2 G12D limits assumed): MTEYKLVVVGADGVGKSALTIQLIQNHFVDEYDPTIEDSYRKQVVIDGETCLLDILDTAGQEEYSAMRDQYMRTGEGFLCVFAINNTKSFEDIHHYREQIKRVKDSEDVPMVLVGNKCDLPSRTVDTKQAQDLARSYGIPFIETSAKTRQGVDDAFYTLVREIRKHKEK
Chain of KRAS G12D (P62937 whole entry): as the sequence (P62937 whole entry) above
Chain of KRAS G12S (P01116 1-169 isoform P01116-2 G12S limits assumed): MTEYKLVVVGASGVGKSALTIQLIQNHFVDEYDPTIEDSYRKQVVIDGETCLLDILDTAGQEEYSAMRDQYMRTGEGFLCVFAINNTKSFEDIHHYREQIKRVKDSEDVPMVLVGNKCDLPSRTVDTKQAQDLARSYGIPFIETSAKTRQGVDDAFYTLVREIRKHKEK
Chain of KRAS G12S (P62937 whole entry): as the sequence (P62937 whole entry) above
Chain of NRAS G12C (P01111 whole entry G12C): as the sequence (P01111 whole entry) above, with G12C counted along it
Chain of NRAS G12C (P62937 whole entry): as the sequence (P62937 whole entry) above
Chain of KRAS G12V (P01116 1-169 isoform P01116-2 G12V limits assumed): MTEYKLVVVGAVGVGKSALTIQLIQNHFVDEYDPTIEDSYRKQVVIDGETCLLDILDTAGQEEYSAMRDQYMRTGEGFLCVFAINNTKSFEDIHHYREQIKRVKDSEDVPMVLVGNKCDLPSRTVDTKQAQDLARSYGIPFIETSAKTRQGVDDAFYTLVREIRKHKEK
Chain of KRAS G12V (P62937 whole entry): as the sequence (P62937 whole entry) above
Chain of NRAS Q61K (P01111 whole entry Q61K): as the sequence (P01111 whole entry) above, with Q61K counted along it
Chain of NRAS Q61K (P62937 whole entry): as the sequence (P62937 whole entry) above

IC50 (NCI-H358 (K-Ras G12C)) | IC50 (KRAS Q61H) | IC50 (NRAS Q61K) | IC50 (NRAS Q61R) | IC50 (NRAS WT) | IC50 (KRAS G12C; [1]) | IC50 (KRAS G12D; [2]) | IC50 (KRAS G12S; [3]) | IC50 (KRAS G12V; [4]) | IC50 (KRAS G13C; [5]) | IC50 (KRAS G13D; [6]) | IC50 (KRAS WT; [7]) | IC50 (NRAS G12C; [8]) | SMILES | IC50 (Capan-1 (K-Ras G12V)) | also measured
< 10 nM | 10 to 100 nM | 10 to 100 nM | 100 to 1000 nM | 10 to 100 nM |  |  |  |  |  |  |  |  | CCn1c(-c2cccnc2[C@H](C)OC)c2c3cc(ccc31)-c1csc(n1)C[C@H](NC(=O)[C@H](C(C)C)N(C)C(=O)N1CCC[C@H](CN(C)C)C1)C(=O)N1CCC[C@H](N1)C(=O)OCC(C)(C)C2 (atropisomer, axis not shown) [Example A573] | 10 to 100 nM | IC50 (KRAS G12C; KRAS G12C FRET data, IC50): 10 to 100 nM; IC50 (KRAS G12D; KRAS G12D FRET data, IC50): 10 to 100 nM; IC50 (KRAS G12S; KRAS G12S FRET data, IC50): 10 to 100 nM; IC50 (KRAS G12V; KRAS G12V FRET data IC50, KRAS G12V): 100 to 1000 nM; IC50 (KRAS G13C; KRAS G13C FRET data, IC50): 10 to 100 nM; IC50 (KRAS G13D; KRAS G13D FRET data IC50, KRAS G13D): 10 to 100 nM; IC50 (KRAS WT; KRAS WT FRET data IC50, KRAS WT): 10 to 100 nM; IC50 (NRAS G12C; NRAS G12C FRET data IC50, NRAS G12C): 10 to 100 nM
100 to 1000 nM | 100 to 1000 nM | 1000 to 10000 nM | 100 to 1000 nM | 100 to 1000 nM | 100 to 1000 nM | 100 to 1000 nM | 100 to 1000 nM | 10 to 100 nM | 100 to 1000 nM | 100 to 1000 nM | 100 to 1000 nM | 100 to 1000 nM | CCn1c(-c2cc(N3CCN(C)CC3)cnc2[C@H](C)OC)c2c3cc(ccc31)-c1cc(O)cc(c1)C[C@H](NC(=O)[C@H](C1CCCC1)N(C)C(=O)[C@H]1OCC[C@H]1c1ccccc1)C(=O)N1CCC[C@H](N1)C(=O)OCC(C)(C)C2 [Example A423] | 100 to 1000 nM | 
< 10 nM | 10 to 100 nM | 10 to 100 nM | 10 to 100 nM | 10 to 100 nM | 10 to 100 nM | 100 to 1000 nM | 100 to 1000 nM | 100 to 1000 nM | 100 to 1000 nM | 100 to 1000 nM | 10 to 100 nM | 10 to 100 nM | CCn1c(-c2cc(C3CCN(C)CC3)cnc2[C@H](C)OC)c2c3cc(ccc31)-c1csc(n1)C[C@H](NC(=O)[C@H](C(C)C)N(C)C(=O)N1CCOCC1)C(=O)N1CCC[C@H](N1)C(=O)OCC(C)(C)C2 (atropisomer, axis not shown) [Example A505] | < 10 nM | 
< 10 nM | < 10 nM | 10 to 100 nM | 10 to 100 nM | 10 to 100 nM | 10 to 100 nM | 10 to 100 nM | 10 to 100 nM | 10 to 100 nM | 10 to 100 nM | 10 to 100 nM | 10 to 100 nM | 10 to 100 nM | CCn1c(-c2cccnc2[C@H](C)OC)c2c3cc(ccc31)-c1cc(O)cc(c1)C[C@H](NC(=O)[C@H](C(C)C)N(C)C(=O)C1(C#N)CC1)C(=O)N1CCC[C@H](N1)C(=O)OCC(C)(C)C2 (racemic) [Example A159] | 10 to 100 nM | 
